Measured values taken from patent publication US8058258B2, “Methods for cancer therapy and stem cell modulation” (Agency for Science, Technology and Research, priority 2006, dated 2011).
Where a SMILES comes first, the peptide text is derived from it. [ ]: non-standard residue; d: D form. The star is where a group is joined. Nle = CCCC[C@H](N)C(=O)O; Nva = CCC[C@H](N)C(=O)O; Cbz = O=C(OCc1ccccc1)*

Experiments:
Assay type in all cases: cell-based, human
MCF-7 cells = assay: Microarray gene expression analysis (Illumina BeadChip) in MCF-7 cells
Description: (§1) Cells were maintained in DMEM supplemented with 10% fetal bovine serum with glutamine, penicillin, and streptomycin. For drug treatment, cells were seeded the day before the drug treatment. Cells were treated with 5 μM 3-Deazaneplanocin A or 2 μM 5-aza-2′-deoxycytidine (5-AzaC; Sigma) for 72 hours and trichostatin A (TSA; Sigma) at 100 nM for 24 hours. For co-treatment of cells with 5-AzaC and TSA, 5-Aza was added for 48 hours and followed by TSA for 24 hours.
The Smartpool siRNA duplexes of selected PRC2 targets and the non-targeting control were purchased from Dharmacon (Lafayett, Colo.). […] Cells were transfected with 50 nM final concentration of siRNA duplexes using Lipofectamine 2000 (Invitrogen) following the manufacturer's instructions.
Total RNA was isolated from cell lines using Trizol (Invitrogen) and was converted to cDNA using an RNA Amplification kit (Ambion). The microarray hybridisation was performed using the Illumina Gene Expression BeadChip (Illumina) and data analysis was performed using GeneSpring software from Agilent Technologies.
The effects on gene expression were analysed using an Illumina Gene Expression BeadChip. […] To be inclusive for the subsequent analysis, all 1402 genes were considered to be potential PRC2 target genes.
To identify the PRC2 targets specifically repressed in breast cancer cells, the expression profiles of the 140 putative PRC2 target genes in MCF-7 cells and MCF10A cells were compared by gene clustering analysis (FIG. 4C).

[1] = system: PRC2 target genes TGFBI, KRT17, FBXO32, ANXA8, DLX2; assay: Real-time RT-PCR of representative PRC2 targets in MCF-7 cells
Description: I: MCF-7 cells were untreated or treated with 3-deazaneplanocin (DZNep), 5-azacytidine (5-AzaC) or a combination of 5-azacytidine and trichostatin A (AZA+TSA), and RNA was isolated for gene expression analysis.
as §1
Total RNA was isolated from cell lines using Trizol (Invitrogen) and was converted to cDNA using an RNA Amplification kit (Ambion). […] Quantitative real-time PCR was performed on a PRISM 7900 sequenced detector (Applied Biosystems) using TaqMan probes (Applied Biosystems). Samples were normalized to the levels of 18S ribosomal RNA.
The array results were further confirmed by real-time RT-PCR for representative PRC2 targets.

[2] = system: EZH2 and SUZ12 protein levels in MCF-7 cells; assay: Proteosome inhibitor rescue of 3-deazaneplanocin-induced PRC2 depletion (Western blot); settings: 3-deazaneplanocin 18 h then MG132 (5 μM), LLNL (50 μM) or MG115 (20 μM) for 8 h
Description: FIG. 1C depicts the effect of 3-deazaneplanocin in the presence of proteosome inhibitors on EZH2 and SUZ12 protein levels. MCF-7 cells were treated with 3-deazaneplanocin for 18 h, followed by the addition of proteosome inhibitor MG132 (5 μM), LLNL (50 μM), MG115 (20 μM) […] for 8 h. Cells were harvested for Western blot analysis of EZH2 and SUZ12.
Cell pellets were first lysed in RadioImmuno Precipitation Assay (RIPA) buffer, consisting of an aqueous solution of 25 mM Tris-HCl pH 7.6, 150 mM NaCl, 1% Nonidet-P 40 (NP-40), 1% sodium deoxycholate and 0.1% sodium dodecylsulfate (SDS), before further sonicated using a tissue homogeniser to release all the proteins. Equal amounts of protein were separated on SDS-polyacrylamide gels and transferred to polyvinylidene difluoride (PVDF) membranes. The blots were probed with antibodies against: EED (07-368), SUZ12 (07-379), SUV39H1 (07-550), BMI1 (05-637), tri-methylated H3-K27 (07-449), tri-methylated H3-K9 (07-442) and Acetyl-Histone H3 (06-599), and were purchased from Upstate. EZH2 (AC22) and Histone H3 (3H1) were from Cell Signaling. Antibodies against DNA methyl-transferases DNMT1 and DNMT3B were purchased from Alexis Biochemicals.
It has previously been reported that the stability of PRC2 proteins is regulated through proteosome-mediated mechanism. It was therefore tested whether the depletion of PRC2 proteins by 3-deazaneplanocin results from the protein degradation. MCF-7 cells were treated with 3-deazaneplanocin in the presence or absence of three individual proteosome inhibitors MG132, LLNL, and MG115 to test if these treatments would rescue 3-deazaneplanocin-induced PRC2 depletion.

Nc1ncn([C@H]2C[C@H](O)[C@@H](CO)O2)c(=O)n1 [5-AzaC, 5-aza-2′-deoxycytidine, reference compound]
reactivation of the 140 PRC2 targets in general, in comparison with 3-deazaneplanocin (MCF-7 cells; array, 5-AzaC 2 μM, TSA 100 nM): did not result in the significant reactivation
induction of TGFBI, KRT17 and FBX032 (real-time RT-PCR) [1]: not

CCCC[C@@H](C=O)NC(=O)[C@H](CC(C)C)NC(=O)[C@H](CC(C)C)NC(C)=O [LLNL] (Ac-Leu-Leu-[Nle]-aldehyde)
downregulation of EZH2 and SUZ12 protein levels in response to 3-deazaneplanocin [2]: prevented the downregulation

CCC[C@@H](C=O)NC(=O)[C@H](CC(C)C)NC(=O)[C@H](CC(C)C)NC(=O)OCc1ccccc1 [MG115] (Cbz-Leu-Leu-[Nva]-aldehyde)
downregulation of EZH2 and SUZ12 protein levels in response to 3-deazaneplanocin [2]: prevented the downregulation

CC(C)C[C@@H](C=O)NC(=O)[C@H](CC(C)C)NC(=O)[C@H](CC(C)C)NC(=O)OCc1ccccc1 [MG132] (Cbz-Leu-Leu-Leu-aldehyde)
downregulation of EZH2 and SUZ12 protein levels in response to 3-deazaneplanocin [2]: prevented the downregulation

B1: SUZ12 siRNA: siRNA targeting SUZ12 mRNA; stem-loop RNA from oligonucleotides SEQ ID NO: 1 and 2 (nucleic acid)
chain 1: GATCCCCGTCGCAACGGACCAGTTAATTCAAGAGATTAACTGGTCCGTTGCGACTTTTTGGAAA
chain 2: TCGATTTCCAAAAAGTCGCAACGGACCAGTTGATCTCTTGAATTAACTGGTCCGTTGCGACGGG
modifications: expressed or natural sequence; the letters are possibly those of the target site
number of genes upregulated ≧2-fold after siRNA treatment (MCF-7 cells; siRNA knockdown of PRC2 component): 572 genes
